Data on nine molecules can be found in the NIST ThermoML archive (doi:10.1016/j.fluid.2009.01.011).

± gives the expanded uncertainty stated by the source.

The series can be described thus: activity coefficient (dimensionless); of the first substance listed, at infinite dilution; xn = mol fraction of the nth substance listed. The settings on record: Liquid, Chromatography, x1 = 0.

`c1ccccc1` [benzene] + CCCC[N+]1(C)CCCC1.O=S(=O)([O-])C(F)(F)F: the activity coefficient is, setting by setting: (298.15 K) 1.41 ± 0.06; (308.15 K) 1.44 ± 0.06; (318.15 K) 1.46 ± 0.06; (328.15 K) 1.48 ± 0.06; (338.15 K) 1.5 ± 0.06; (348.15 K) 1.53 ± 0.06. Besides, the activity coefficient reads like this: (358.15 K) 1.54 ± 0.06; (368.15 K) 1.56 ± 0.06.
In the case of `C=CCCCC` [hex-1-ene] + CCCC[N+]1(C)CCCC1.O=S(=O)([O-])C(F)(F)F, the activity coefficient by setting is: (298.15 K) 21.6 ± 1; (308.15 K) 20.2 ± 0.9; (318.15 K) 19.2 ± 0.9; (328.15 K) 18.1 ± 0.8; (338.15 K) 17.3 ± 0.8; (348.15 K) 16.4 ± 0.7. Further, the activity coefficient is 15.7 ± 0.7 (358.15 K) and 15 ± 0.7 (368.15 K).
With `C1CCCC1` [cyclopentane] + CCCC[N+]1(C)CCCC1.O=S(=O)([O-])C(F)(F)F, the activity coefficient by setting is: (298.15 K) 19.2 ± 0.9; (308.15 K) 17.4 ± 0.8; (318.15 K) 15.9 ± 0.7; (328.15 K) 14.6 ± 0.6; (338.15 K) 13.5 ± 0.6; (348.15 K) 12.6 ± 0.6. Besides, the activity coefficient was determined as 11.7 ± 0.5 (358.15 K) and 11 ± 0.5 (368.15 K).
For `CCCCC` [pentane] + CCCC[N+]1(C)CCCC1.O=S(=O)([O-])C(F)(F)F, the activity coefficient was 52.1 ± 2.3 (298.15 K); 46.1 ± 2.1 (308.15 K); 40.3 ± 1.8 (318.15 K); 35.9 ± 1.6 (328.15 K); 32.2 ± 1.4 (338.15 K); 28.9 ± 1.3 (348.15 K). Moreover, the activity coefficient (358.15 K) was 26.1 ± 1.2.
Consider `C1CCCCCCC1` [cyclooctane] + CCCC[N+]1(C)CCCC1.O=S(=O)([O-])C(F)(F)F, for which the activity coefficient is 37.4 ± 1.7 (298.15 K); 34 ± 1.5 (308.15 K); 31.4 ± 1.4 (318.15 K); 29.1 ± 1.3 (328.15 K); 26.9 ± 1.2 (338.15 K); 25.1 ± 1.1 (348.15 K). Moreover, the activity coefficient amounted to 23.5 ± 1 (358.15 K) and 22.2 ± 1 (368.15 K).
As for `C#CCCCC` [1-hexyne] + CCCC[N+]1(C)CCCC1.O=S(=O)([O-])C(F)(F)F, the activity coefficient came to 3.57 ± 0.16 (298.15 K); 3.66 ± 0.16 (308.15 K); 3.76 ± 0.17 (318.15 K); 3.85 ± 0.17 (328.15 K); 3.94 ± 0.17 (338.15 K); 4.02 ± 0.18 (348.15 K). The activity coefficient was 4.09 ± 0.18 (358.15 K) and 4.18 ± 0.18 (368.15 K).
Turning to `Cc1ccc(C)cc1` [1,4-dimethylbenzene] + CCCC[N+]1(C)CCCC1.O=S(=O)([O-])C(F)(F)F, the activity coefficient was 3.32 ± 0.15 (308.15 K); 3.35 ± 0.15 (318.15 K); 3.38 ± 0.15 (328.15 K); 3.4 ± 0.15 (338.15 K); 3.43 ± 0.15 (348.15 K); 3.45 ± 0.15 (358.15 K). In addition, under “368.15 K”, the activity coefficient was 3.48 ± 0.15.
On to `COC(C)(C)C` [2-methoxy-2-methylpropane] + CCCC[N+]1(C)CCCC1.O=S(=O)([O-])C(F)(F)F, for which the activity coefficient runs as follows: (298.15 K) 5.67 ± 0.25; (308.15 K) 5.65 ± 0.25; (318.15 K) 5.64 ± 0.25; (328.15 K) 5.63 ± 0.25; (338.15 K) 5.62 ± 0.25; (348.15 K) 5.6 ± 0.25. The activity coefficient is, setting by setting: (358.15 K) 5.59 ± 0.25; (368.15 K) 5.58 ± 0.25.
`C=CCCCCC` [1-heptene] + CCCC[N+]1(C)CCCC1.O=S(=O)([O-])C(F)(F)F: the activity coefficient turned out to be 29 ± 1.3 (298.15 K); 27.5 ± 1.2 (308.15 K); 26.1 ± 1.2 (318.15 K); 24.8 ± 1.1 (328.15 K); 23.6 ± 1 (338.15 K); 22.6 ± 1 (348.15 K). Moreover, the activity coefficient runs as follows: (358.15 K) 21.6 ± 1; (368.15 K) 20.8 ± 0.9.
